The values that follow come from ChEMBL document CHEMBL1123632, “Cardiotonic agents. 7. Inhibition of separated forms of cyclic nucleotide phosphodiesterase from guinea pig cardiac muscle by 4,5-dihydro-6-[4-(1H-imidazol-1-yl)phenyl]-3(2H)-pyridazinones and related compounds. Structure-activity relationships and correlation with in vivo positive inotropic …” (J Med Chem, 1987).

Conditions in all cases: Cavia porcellus; target entry is the homologue from another species
For experiment [1], the target named is T1, Phosphodiesterase 1 (Homo sapiens, UniProt P54750+Q01064+Q14123). Nature of the experiment: Inhibition of cAMP PDE I enzyme in guinea pig at 1E-5M concentration. It counts as protein assay.
Experiment [2] has as its target T1, Phosphodiesterase 1. Nature of the experiment: Inhibition of cGMP PDE I enzyme in guinea pig at 1E-5M concentration. Format: protein assay.
For experiment [3], the target named is Phosphodiesterase 3 (Homo sapiens, UniProt Q14432+Q13370). Description: Inhibition of cAMP PDE III enzyme in guinea pig at 1E-5M concentration. It counts as protein assay.
Experiment [4] has as its target T2, cGMP-dependent 3',5'-cyclic phosphodiesterase (Homo sapiens, UniProt O00408). Description: Inhibition of cAMP PDE II enzyme in guinea pig at 1E-5M concentration.
The target of experiment [5] is T2, cGMP-dependent 3',5'-cyclic phosphodiesterase. Description: Inhibition of cGMP PDE II enzyme in guinea pig at 1E-5M concentration.
The target in experiment [6] is T1, Phosphodiesterase 1. Description: Inhibition of cAMP PDE I enzyme in guinea pig at 1E-4M concentration. Format: protein assay.
The target in experiment [7] is T1, Phosphodiesterase 1. Nature of the experiment: Inhibition of cGMP PDE I enzyme in guinea pig at 1E-4M concentration. Format: protein assay.

Broadly, the inhibition is the change of the read-out against control, counted positive when it falls.

T2 sequence (O00408 whole entry): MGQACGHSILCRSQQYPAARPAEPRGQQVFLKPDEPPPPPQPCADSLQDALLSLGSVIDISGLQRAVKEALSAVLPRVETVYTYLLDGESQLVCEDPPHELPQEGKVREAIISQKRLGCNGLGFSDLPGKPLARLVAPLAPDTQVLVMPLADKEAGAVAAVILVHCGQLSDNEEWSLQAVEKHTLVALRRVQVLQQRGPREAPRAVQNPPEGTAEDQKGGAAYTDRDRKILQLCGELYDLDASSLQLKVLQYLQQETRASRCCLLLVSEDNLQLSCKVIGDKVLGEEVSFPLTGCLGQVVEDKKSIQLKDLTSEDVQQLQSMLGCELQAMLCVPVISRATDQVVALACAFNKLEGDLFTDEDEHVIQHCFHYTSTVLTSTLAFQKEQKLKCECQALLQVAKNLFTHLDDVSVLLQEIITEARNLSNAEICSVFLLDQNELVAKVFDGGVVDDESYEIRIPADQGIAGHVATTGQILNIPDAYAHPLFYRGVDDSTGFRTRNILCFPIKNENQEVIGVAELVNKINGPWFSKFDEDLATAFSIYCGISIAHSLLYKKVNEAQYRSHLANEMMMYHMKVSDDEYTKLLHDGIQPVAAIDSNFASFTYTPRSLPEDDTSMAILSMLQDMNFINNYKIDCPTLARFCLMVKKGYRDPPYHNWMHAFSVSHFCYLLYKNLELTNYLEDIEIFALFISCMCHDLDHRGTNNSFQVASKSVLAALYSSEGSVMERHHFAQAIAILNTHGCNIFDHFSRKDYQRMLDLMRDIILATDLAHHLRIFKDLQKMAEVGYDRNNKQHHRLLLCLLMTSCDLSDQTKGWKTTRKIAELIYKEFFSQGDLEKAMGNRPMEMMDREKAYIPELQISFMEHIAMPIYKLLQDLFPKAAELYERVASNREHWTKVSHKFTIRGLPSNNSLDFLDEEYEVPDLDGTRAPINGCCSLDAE

On to `O=C1CCC(c2ccc(NC3=NCCN3)cc2)=NN1`, for which the inhibition in experiment [1] came out at 33%; in experiment [2] it was 33%; in experiment [3], 58%; in experiment [4], 28%; in experiment [5] it was 16%.

With `CC1(C)CC(=O)NN=C1c1ccc(-n2ccnc2)cc1`, the inhibition in experiment [1] came to 2%; in experiment [2], 5%; in experiment [3] it was 47%; in experiment [4], 17%; in experiment [5], 6%.

Turning to `NNC(=O)c1cc(-c2ccc(-n3ccnc3)cc2)nnc1O`, the inhibition is 6% in experiment [1]; 4% in experiment [2]; 21% in experiment [3]; 20% in experiment [4]; 12% in experiment [5].

In the case of `CSc1nccn1-c1ccc(C2=NNC(=O)CC2)cc1`, the inhibition in experiment [1] came out at 7%; in experiment [2], 13%; in experiment [3] it was 57%; in experiment [4] it was 10%; in experiment [5], 12%.

As to `O=C1CCC(c2ccc(NC3=NCCS3)cc2)=NN1`, the inhibition in experiment [1] turned out to be 18%; in experiment [2], 20%; in experiment [3], 58%; in experiment [4], 31%; in experiment [5], 33%.

Consider `O=C1CCC(c2ccc(-n3cccn3)cc2)=NN1`, for which the inhibition was found to be 12% in experiment [1], 15% in experiment [2], 27% in experiment [4] and 27% in experiment [5].

As to `CC(=O)OCCN1N=C(c2ccc(-n3ccnc3)cc2)CCC1=O`, the inhibition was found to be 1% in experiment [1]; 5% in experiment [2]; 16% in experiment [3]; 23% in experiment [4]; 11% in experiment [5].

As to `O=C1CCC(c2ccc(-n3cnnc3)cc2)=NN1`, the inhibition in experiment [1] turned out to be 29%; in experiment [2], 20%; in experiment [3] it was 70%; in experiment [4], 25%; in experiment [5], 21%.

Consider `Oc1ccc(-c2ccc(-n3cnc4c3CCCC4)cc2)nn1`, for which the inhibition turned out to be 30% in experiment [1], 52% in experiment [6], 27% in experiment [2] and 56% in experiment [7].

With `O=C1CCC(c2ccc(-n3cccc3)cc2)=NN1`, the inhibition in experiment [1] stood at 0%; in experiment [2], 13%; in experiment [3], 68%; in experiment [4] it was 20%; in experiment [5], 21%.

Turning to `CCc1nc(C)c(Br)n1-c1ccc(-c2ccc(O)nn2)cc1`, the inhibition in experiment [1] was determined as 20%; in experiment [6] it was 64%.

For the compound `O=C1CCC(c2ccc(-c3nn[nH]n3)cc2)=NN1`, the inhibition is 21% in experiment [1]; 20% in experiment [2]; 86% in experiment [3]; 37% in experiment [4]; 29% in experiment [5].

As to `Cc1csc(Nc2ccc(C3=NNC(=O)CC3)cc2)n1`, the inhibition in experiment [1] is 7%; in experiment [2], 2%; in experiment [3] it was 58%; in experiment [4], 23%; in experiment [5], 23%.

Turning to `NC(=O)c1cc(-c2ccc(-n3ccnc3)cc2)nnc1O`, the inhibition in experiment [1] was 11%; in experiment [2], 16%; in experiment [3], 24%; in experiment [4], 18%; in experiment [5], 15%.

With `Cn1nc(-c2ccc(-n3ccnc3)cc2)ccc1=O`, the inhibition was 1% in experiment [1]; 9% in experiment [2]; 20% in experiment [3]; 16% in experiment [4]; 12% in experiment [5].

In the case of `CC1(C)CC(c2ccc(-n3ccnc3)cc2)=NNC1=O`, the inhibition in experiment [1] was determined as 7%; in experiment [2] it was 2%; in experiment [3], 27%; in experiment [4], 22%; in experiment [5], 13%.
